Assay results: patent US11564394B2, “Distorted gold (I)-phosphine complexes and methods for use as antifungal agents” (University of Kentucky Research Foundation, priority 2019, dated 2023)
≈ marks a conversion by molar mass, not a printed value. Read-outs that look alike come from different tables or passages of the source.

How the values were obtained:
[1] = tested on: Candida biofilms; settings: FDA-approved antifungal agents; cited from earlier work
[2] = tested on: murine and human red blood cells (RBCs)
Procedure: The RBCs were resuspended in PBS to achieve a cell concentration of on the order of 10^7 cells/mL. Compounds were dissolved at concentration of 3.14 mg/mL (200×) in DMSO. Serial double dilutions were made in DMSO. A 1:100 dilution of compound in PBS was added to 100 of RBCs in a 96-well plate (total volume of 200 μL). Compounds were tested in the range of 0.06-15.6 μg/mL in quadruplicate with 0.5% DMSO and ˜5×10^6 RBCs per tube. The RBCs were also treated with 1% Triton-X® (positive control) and PBS (negative control). The RBCs were treated for 30 min at 37° C. and the absorbance was read at 595 nm. Hemolysis is visually observed by a decrease in optical density of the wells (turbid, dark red to transparent pink). Percent hemolysis (FIG. 5A-B) was calculated using this equation after subtraction of the background absorbance ([…]): […]

[3] = tested on: C. albicans ATCC MYA-1237(R) (strain C); type: cell-based, Candida albicans; settings: strain C = C. albicans ATCC MYA-1237(R); MIC-0; 48 h; listed as printed beside letter D
[4] = tested on: C. auris AR Bank #0390 (strain L); assay: Time-kill assay; type: cell-based, Candida auris; settings: 1×MIC
[5] = tested on: C. albicans ATCC 10231 (strain B)
Procedure: (§1) The protocol for time-kill assays followed methods previously described with minor modifications.^34,90 Overnight cultures were grown in YEPD medium at 35° C. with shaking at 200 rpm. The overnight cultures were diluted in RPMI 1640 medium to an OD600 of 0.125 (˜x10^6 CFU/mL). Then, 200 μL of cells were added to 4.8 mL of RPMI 1640 medium in sterile culture tubes to afford a fungal cell concentration ˜1×10^5 CFU/mL. Compounds were then added to the fungal cells. […] Treated fungal cultures were incubated in the culture tubes at 35° C. with 200 rpm shaking for 24 h. Samples were aliquoted from the different treatments at regular time points (0, 3, 6, 9, 12, and 24 h) and plated in duplicate onto PDA plates. For each time point, cultures were vortexed, 100 μL of culture was aspirated, and 10-fold serial dilutions were made in sterile ddH2O. From the appropriate dilutions, 100 μL of fungal suspension was spread on agar plates and incubated at 35° C. for 48 h before colony counts were determined. Only plates containing between 30 and 300 colonies were counted, making […] the limit of detection. At 24 h, 50 μL of sterile 2 mM resazurin in phosphate buffered saline (PBS) was added to the treatments and incubated at 35° C. with 200 rpm shaking for 2 h in the dark for visual inspection.

[6] = tested on: C. auris AR Bank #0384 (strain K)
Procedure: as §1

[7] = tested on: Candida strains B, H, K and L; settings: for mode of killing (time-kill): 1× and 2×MIC, 24 h; for decrease of fungal colony forming units (CFU): by the 3 h time point, no increase over 24 h
Procedure: The protocol for time-kill assays followed methods previously described with minor modifications.^34,90 Overnight cultures were grown in YEPD medium at 35° C. with shaking at 200 rpm. The overnight cultures were diluted in RPMI 1640 medium to an OD600 of 0.125 (˜x10^6 CFU/mL). Then, 200 μL of cells were added to 4.8 mL of RPMI 1640 medium in sterile culture tubes to afford a fungal cell concentration ˜1×10^5 CFU/mL. Compounds were then added to the fungal cells. […] Treated fungal cultures were incubated in the culture tubes at 35° C. with 200 rpm shaking for 24 h. Samples were aliquoted from the different treatments at regular time points (0, 3, 6, 9, 12, and 24 h) and plated in duplicate onto PDA plates. For each time point, cultures were vortexed, 100 μL of culture was aspirated, and 10-fold serial dilutions were made in sterile ddH2O. From the appropriate dilutions, 100 μL of fungal suspension was spread on agar plates and incubated at 35° C. for 48 h before colony counts were determined. Only plates containing between 30 and 300 colonies were counted, making 30 CFU/mL the limit of detection. At 24 h, 50 μL of sterile 2 mM resazurin in phosphate buffered saline (PBS) was added to the treatments and incubated at 35° C. with 200 rpm shaking for 2 h in the dark for visual inspection.

[8] = tested on: C. glabrata ATCC 2001 (strain H); settings: subcultures exposed to ½ MIC
[9] = tested on: Candida spp. biofilms; settings: biofilms of Candida spp.
Procedure: For assays with a pre-formed biofilm, 100 μL of fungal cells were aliquoted in a 96-well plate, leaving one column empty for the sterile control. After 24 h incubation at 37° C., visible biofilms had formed in the well. The biofilm was washed three times with 100 μL of PBS. […] Plates were incubated at 37° C. for 24 h. Finally, the plates were washed three times with PBS before adding 100 μL of XTT dye. The XTT was prepared by dissolving XTT at 0.5 mg/mL concentration in sterile PBS. Before adding to a plate, 1 μL of 10 mM menadione in acetone was added to 10 mL of the 0.5 mg/mL solution of XTT. After addition of XTT (containing menadione), the plates were incubated for 3 h at 37° C. in the dark. 80 μL of liquid from each well was transferred to a new plate and then with the plate reader for absorbance at 450 nm. For these experiments, we determined the sessile MIC (SMIC90), which is defined as the compound concentration required to inhibit the metabolic activity of biofilm by 90% compared to the growth control (Table 3). […] Each assay was performed in duplicate.

[10] = tested on: C. albicans ATCC 10231 (strain B); settings: subcultures exposed to ½ MIC
[11] = tested on: patients; settings: 6 mg daily dose, oral; cited from earlier work

Row | Compound | SMIC90 (literature) [1] | hemolysis ([2]; at 7.8 μg/mL) | hemolysis ([2]; at 15.6 μg/mL) | MIC [3] | MIC (in parentheses) [3] | time at which the limit of detection was reached [4] | time at which the limit of detection was reached ([5]; 2×MIC) | time at which the limit of detection was reached ([6]; 1×MIC) | mode of killing (time-kill) [7] | decrease of fungal colony forming units (CFU) [7] | changes in MIC values over fifteen serial passages [8] | activity against biofilms [9] | changes in MIC values over fifteen serial passages [10] | tolerability in patients [11] | hemolytic activity ([2]; at 15.6 μg/mL) | time at which the limit of detection was reached ([5]; 1×MIC, limit of detection 30 CFU/mL) | time at which the limit of detection was reached ([6]; concentration not specified (tested at 1× and 2×MIC), failed to reach the limit)
1 | C[C@@H]1[C@H](O)[C@@H](C)/C=C/C=C/C=C/C=C/C=C/C=C/C=C/[C@H](O[C@@H]2O[C@H](C)[C@@H](O)[C@H](N)[C@@H]2O)C[C@@H]2O[C@](O)(C[C@@H](O)C[C@@H](O)[C@H](O)CC[C@@H](O)C[C@@H](O)CC(=O)O[C@H]1C)C[C@H](O)[C@H]2C(=O)O [AmB, amphotericin B, reference compound] | 0.5 to 128 µg/mL | 30-60% | 100% | 3.9 µg/mL (≈ 4.22 µM) | 4.2 µM (≈ 3.88 µg/mL) | 9 h | – | – | – | – | – | – | – | – | – | – | –
2 | bis-[1,2-bis[(2R,5R)-2,5-dimethylfphospholano]benzene]gold(1) [Compound 6] | – | – | – | 0.98 µg/mL | 1.2 µM | – | 3 h | 6 h | fungicidal | 102 CFU/mL | no significant changes in MIC values | good activity | no significant changes in MIC values | – | – | – | –
3 | CC(=O)OC[C@H]1O[C@@H]([S-])[C@H](OC(C)=O)[C@@H](OC(C)=O)[C@@H]1OC(C)=O.CCP(CC)CC.[Au+] [Auranofin, auranofin, reference compound] | – | – | – | > 31.3 µg/mL | > 46.1 µM | – | – | – | – | – | – | – | – | well-tolerated | no hemolytic activity | – | –
4 | bis-[1,2-bis[(2S,5S)-2,5-dimethylphospholano]benzene]gold(I) [Compound 4] | – | – | – | 0.98 µg/mL | 1.2 µM | – | – | – | fungicidal | 102 CFU/mL | no significant changes in MIC values | good activity | no significant changes in MIC values | – | – | 9 h | > 24 h
